Where “and” joins values, the source holds several entries; their conditions need not be identical. Equal values may be shown once.
Key:
[1] = tested on: alloxan induced diabetic mice; assay: Hypoglycemic effect on glucose level of alloxan induced diabetic mice; type: in vivo; conditions: for Postdosing glucose level / Predosing glucose level: alloxan diabetic KM male mice; for Predosing glucose level: before dosing
Procedure: The metformin or miglucan were used as positive control drugs. And the hypoglycemic effects were evaluated. Hypoglycemic effect of stilbene derivatives on glucose level of alloxan induced diabetic mice.
KM strain male mice which have been fasted for 5-8 hours are used and be injected intravenously of alloxan 80mg/Kg, and 72 hours later, selected those with glucose level>11.0 mmol/L as the diabetic model mice for drug evaluation. Compounds were administered pos for 12 days.

HBeAg expression = assay: Inhibition of HBeAg expression in 2.2.15 cells (ELISA of supernatant); type: cell-based; conditions: 2.2.15 cells 10^5/ml
Procedure: Experimental method: use 10% DMEM(with G418 380 μg/ml)to cultivate 2.2.15 cells,
Add 1.5ml of 10^5 cell/ml to 24 well plate for cultivation, change the new cultivate fluid next day and add different amount of compound to it, cultivate each concentration of compound to 3 wells, then collect and freeze 200 μl of supernatant of 2.2.15 cell culture at day 2,4,6 cultivation. Measure HBeAg value of the supernatant by ELISA.
E3 are the same, OD optical density, IR inhibition rate, ctr control IR=[Ctr(P/N)−Agent(P/N)]/[Ctr(P/N)−2.1]

mice = assay: in vivo; type: in vivo
[2] = Solubility in organic solvents (identification); type: physicochemical; conditions: organic solvents as named in the value
normal rats = assay: Effect on glucose tolerance curve of normal rats; type: in vivo; design: Auc (area under glucose tolerance curve): unit not given beside the values; conditions: for Glucose (fasted): fasted 8 hours; for Glucose after medication 0′: 0 h after ip glucose 2 g/Kg; for Glucose after medication 30′: 30 min after ip glucose 2 g/Kg; for Glucose after medication 60′: 60 min after ip glucose 2 g/Kg; for Glucose after medication 120′: 120 min after ip glucose 2 g/Kg; for Auc (area under glucose tolerance curve): ip glucose 2 g/Kg, 0-2 hours
Procedure: In these experiments, stilbene derivatives in examples 1-5 are administrated respectively to KM male mice or Wistar male rats pos for 12 days , then test animals were fasted for 8 hours, examined glucose values, and administrated the test compound. One hour later, administered ip of glucose 2 g/Kg (1.11 mol/L glucose solution). Determining the glucose values at 0, ½, 1, 2 hours after glucose injection and calculating the area under this glucose tolerance curve.

in vivo = type: in vivo; conditions: mouse, in vivo, pos
[3] = normal rats N=6, 75 mg/Kg pos 12 days
[4] = normal rats N=6, 150 mg/Kg pos 12 days

Compound: 3,3′,4′,5-quadrahydroxystilbene-4′-O-β-D-glucopyranoside [Compound E1]
- Postdosing glucose level ([1]; 250 mg/kg pos for 12 days): 21.10 ± 5.73 mmol/L
- Postdosing glucose level ([1]; 500 mg/kg pos for 12 days): 16.39 ± 5.32 mmol/L
- Postdosing glucose level ([1]; 1000 mg/kg pos for 12 days): 16.54 ± 5.48 mmol/L
- Predosing glucose level ([1]; group 250 mg/kg): 22.49 ± 4.63 mmol/L
- Predosing glucose level ([1]; group 500 mg/kg): 22.76 ± 3.17 mmol/L
- Predosing glucose level ([1]; group 1000 mg/kg): 22.65 ± 3.55 mmol/L
- IR (%) inhibition rate of HBeAg (HBeAg expression; 10 μg/ml, Day 2): 57.75%
- OD (HBeAg ELISA) (HBeAg expression; 10 μg/ml, Day 2): 0.244
- IR (%) inhibition rate of HBeAg (HBeAg expression; 10 μg/ml, Day 4): 32.68%
- OD (HBeAg ELISA) (HBeAg expression; 10 μg/ml, Day 4): 0.208
- IR (%) inhibition rate of HBeAg (HBeAg expression; 10 μg/ml, Day 6): 51.57%
- OD (HBeAg ELISA) (HBeAg expression; 10 μg/ml, Day 6): 0.228
- IR (%) inhibition rate of HBeAg (HBeAg expression; 20 μg/ml, Day 2): 63.83%
- OD (HBeAg ELISA) (HBeAg expression; 20 μg/ml, Day 2): 0.224
- IR (%) inhibition rate of HBeAg (HBeAg expression; 20 μg/ml, Day 4): −62.75%
- OD (HBeAg ELISA) (HBeAg expression; 20 μg/ml, Day 4): 0.354
- IR (%) inhibition rate of HBeAg (HBeAg expression; 20 μg/ml, Day 6): 48.82%
- OD (HBeAg ELISA) (HBeAg expression; 20 μg/ml, Day 6): 0.235

Compound: COc1cc(C=Cc2cc(O)cc(O[C@@H]3O[C@H](CO)[C@@H](O)[C@H](O)[C@H]3O)c2)ccc1O [Compound E2, 3,4′,5-trihydroxy-3′-methyloxy stilbene-3-O-β-D glucoside]
- Postdosing glucose level ([1]; 250 mg/kg pos for 12 days): 22.61 ± 6.07 mmol/L
- Postdosing glucose level ([1]; 500 mg/kg pos for 12 days): 28.96 ± 8.21 mmol/L
- Postdosing glucose level ([1]; 1000 mg/kg pos for 12 days): 24.64 ± 2.49 mmol/L
- Predosing glucose level ([1]; group 250 mg/kg): 21.43 ± 5.04 mmol/L
- Predosing glucose level ([1]; group 500 mg/kg): 22.98 ± 5.94 mmol/L
- Predosing glucose level ([1]; group 1000 mg/kg): 21.38 ± 5.75 mmol/L
- IR (%) inhibition rate of HBeAg (HBeAg expression; 10 μg/ml, Day 2): 71.43%
- OD (HBeAg ELISA) (HBeAg expression; 10 μg/ml, Day 2): 0.199
- IR (%) inhibition rate of HBeAg (HBeAg expression; 10 μg/ml, Day 4): 45.75%
- OD (HBeAg ELISA) (HBeAg expression; 10 μg/ml, Day 4): 0.188
- IR (%) inhibition rate of HBeAg (HBeAg expression; 10 μg/ml, Day 6): 56.69%
- OD (HBeAg ELISA) (HBeAg expression; 10 μg/ml, Day 6): 0.251
- IR (%) inhibition rate of HBeAg (HBeAg expression; 20 μg/ml, Day 2): 40.43%
- OD (HBeAg ELISA) (HBeAg expression; 20 μg/ml, Day 2): 0.301
- IR (%) inhibition rate of HBeAg (HBeAg expression; 20 μg/ml, Day 4): 9.15%
- OD (HBeAg ELISA) (HBeAg expression; 20 μg/ml, Day 4): 0.244
- IR (%) inhibition rate of HBeAg (HBeAg expression; 20 μg/ml, Day 6): 4.72%
- OD (HBeAg ELISA) (HBeAg expression; 20 μg/ml, Day 6): 0.347
- MTD (mice; mice ♀, pos): >16872 mg/kg
- MTD (mice; mice ♂, pos): >18301 mg/kg
- Toxicity (in words) (mice; mice, pos, summary of Table 3): very low

Compound: COc1ccc(C=Cc2cc(O)cc(O[C@@H]3O[C@H](CO)[C@@H](O)[C@H](O)[C@H]3O)c2)cc1 [Compound E3, 3,5-dihydroxy-4′-methyloxy stilbene-3-O-β-O-D glucoside]
- IR (%) inhibition rate of HBeAg (HBeAg expression; 10 μg/ml, Day 2): 72.95%
- OD (HBeAg ELISA) (HBeAg expression; 10 μg/ml, Day 2): 0.194
- IR (%) inhibition rate of HBeAg (HBeAg expression; 10 μg/ml, Day 4): 39.87%
- OD (HBeAg ELISA) (HBeAg expression; 10 μg/ml, Day 4): 0.197
- IR (%) inhibition rate of HBeAg (HBeAg expression; 10 μg/ml, Day 6): 71.65%
- OD (HBeAg ELISA) (HBeAg expression; 10 μg/ml, Day 6): 0.177
- IR (%) inhibition rate of HBeAg (HBeAg expression; 20 μg/ml, Day 2): 51.37%
- OD (HBeAg ELISA) (HBeAg expression; 20 μg/ml, Day 2): 0.265
- IR (%) inhibition rate of HBeAg (HBeAg expression; 20 μg/ml, Day 4): 1.31%
- OD (HBeAg ELISA) (HBeAg expression; 20 μg/ml, Day 4): 0.256
- IR (%) inhibition rate of HBeAg (HBeAg expression; 20 μg/ml, Day 6): 48.43%
- OD (HBeAg ELISA) (HBeAg expression; 20 μg/ml, Day 6): 0.236
- MTD (mice; mice ♀, pos): >11200 mg/kg
- MTD (mice; mice ♂, pos): >11000 mg/kg
- Toxicity (in words) (mice; mice, pos, summary of Table 3): very low

Compound: OC[C@H]1OC(Oc2cc(O)cc(C=Cc3ccc(O)cc3)c2)[C@H](O)[C@@H](O)[C@@H]1O (some centres unmarked) [Compound E5]
- Solubility (in words) [2]: easily soluble in acetone
- Postdosing glucose level ([1]; 75 mg/kg pos for 12 days): 21.79 ± 9.39 mmol/L
- Postdosing glucose level ([1]; 150 mg/kg pos for 12 days): 21.05 ± 4.63 mmol/L
- Predosing glucose level ([1]; group 75 mg/kg): 17.46 ± 5.86 mmol/L
- Predosing glucose level ([1]; group 150 mg/kg): 17.92 ± 5.35 mmol/L
- Glucose (fasted) (normal rats; [3]): 4.6 ± 0.5 mmol/L
- Glucose after medication 0′ (normal rats; normal rats N=6, 75 mg/Kg): 4.9 ± 0.7 mmol/L
- Glucose after medication 30′ (normal rats; normal rats N=6, 75 mg/Kg): 12.0 ± 1.5 mmol/L
- Glucose after medication 60′ (normal rats; normal rats N=6, 75 mg/Kg): 7.4 ± 0.8 mmol/L
- Glucose after medication 120′ (normal rats; normal rats N=6, 75 mg/Kg): 6.7 ± 0.7 mmol/L
- Auc (area under glucose tolerance curve) (normal rats; normal rats N=6, 75 mg/Kg): 966.8 ± 71.6
- Glucose (fasted) (normal rats; [4]): 4.7 ± 0.8 mmol/L
- Glucose after medication 0′ (normal rats; normal rats N=6, 150 mg/Kg): 4.3 ± 0.9 mmol/L
- Glucose after medication 30′ (normal rats; normal rats N=6, 150 mg/Kg): 10.2 ± 1.5 mmol/L
- Glucose after medication 60′ (normal rats; normal rats N=6, 150 mg/Kg): 6.3 ± 1.1 mmol/L
- Glucose after medication 120′ (normal rats; normal rats N=6, 150 mg/Kg): 5.7 ± 1.1 mmol/L
- Auc (area under glucose tolerance curve) (normal rats; normal rats N=6, 150 mg/Kg): 836.3 ± 112.1
- MTD (mice; mouse, in vivo): >10000 mg/kg
- Toxicity (in words) (mice; mouse, in vivo): very low

Compound: Oc1ccc(/C=C/c2cc(O)cc(O)c2)cc1 [Compound E]
- Solubility (in words) [2]: easily soluble in methyl alcohol, ethyl alcohol and acetone
- Postdosing glucose level ([1]; 75 mg/kg pos for 12 days): 20.01 ± 7.1 mmol/L
- Postdosing glucose level ([1]; 150 mg/kg pos for 12 days): 18.36 ± 6.25 mmol/L
- Predosing glucose level ([1]; group 75 mg/kg): 17.27 ± 4.60 mmol/L
- Predosing glucose level ([1]; group 150 mg/kg): 17.87 ± 4.86 mmol/L
- Glucose (fasted) (normal rats; [3]): 5.3 ± 0.9 mmol/L
- Glucose after medication 0′ (normal rats; normal rats N=6, 75 mg/Kg): 4.9 ± 0.7 mmol/L
- Glucose after medication 30′ (normal rats; normal rats N=6, 75 mg/Kg): 12.1 ± 2.3 mmol/L
- Glucose after medication 60′ (normal rats; normal rats N=6, 75 mg/Kg): 7.5 ± 0.8 mmol/L
- Glucose after medication 120′ (normal rats; normal rats N=6, 75 mg/Kg): 6.2 ± 0.9 mmol/L
- Auc (area under glucose tolerance curve) (normal rats; normal rats N=6, 75 mg/Kg): 961.1 ± 115.9
- Glucose (fasted) (normal rats; [4]): 5.8 ± 0.6 mmol/L
- Glucose after medication 0′ (normal rats; normal rats N=6, 150 mg/Kg): 4.2 ± 0.4 mmol/L
- Glucose after medication 30′ (normal rats; normal rats N=6, 150 mg/Kg): 9.5 ± 2.1 mmol/L
- Glucose after medication 60′ (normal rats; normal rats N=6, 150 mg/Kg): 6.1 ± 1.2 mmol/L
- Glucose after medication 120′ (normal rats; normal rats N=6, 150 mg/Kg): 4.7 ± 0.7 mmol/L
- Auc (area under glucose tolerance curve) (normal rats; normal rats N=6, 150 mg/Kg): 760.2 ± 119.6
- Toxicity (in words) (mice; mouse, in vivo): very low
- MTD (in vivo; female, mice ♀): > 6100 mg/kg
- MTD (in vivo; male, mice ♂): > 6000 mg/kg

Compound: CN(C)C(=N)N=C(N)N [Metformin, reference compound]
- Postdosing glucose level ([1]; 500 mg/kg pos for 12 days, 500 mg/kg): 17.49 ± 5.33 mmol/L and 17.64 ± 1.00 mmol/L and 15.16 ± 8.53 mmol/L
- Predosing glucose level ([1]; group 500 mg/kg): 22.81 ± 4.89 mmol/L and 21.15 ± 3.85 mmol/L and 17.10 ± 4.84 mmol/L
- Hypoglycemic effect (in words) ([1]; alloxan induced diabetic mice, summary of Table 1): effective

Compound: COc1ccc(Cl)cc1C(=O)NCCc1ccc(S(=O)(=O)NC(=O)NC2CCCCC2)cc1 [Miglucan, reference compound]
- Glucose after medication 0′ (normal rats; normal rats N=6, 100 mg/Kg): 2.7 ± 0.8 mmol/L and 3.4 ± 0.4 mmol/L
- Glucose after medication 30′ (normal rats; normal rats N=6, 100 mg/Kg): 11.5 ± 0.6 mmol/L and 8.7 ± 3.5 mmol/L
- Glucose after medication 60′ (normal rats; normal rats N=6, 100 mg/Kg): 7.8 ± 6.2 mmol/L and 5.3 ± 2.1 mmol/L
- Glucose after medication 120′ (normal rats; normal rats N=6, 100 mg/Kg): 4.1 ± 1.7 mmol/L and 3.8 ± 1.4 mmol/L
- Auc (area under glucose tolerance curve) (normal rats; normal rats N=6, 100 mg/Kg): 883.1 ± 43.5 and 663.8 ± 220.2

Source: patent publication US7384920B2, “Use of stilbene compounds in the manufacture of medicament for the prevention and treatment of diabetes or retrovirus-associated diseases” (priority 2001, dated 2008)
